Test results as given in patent US20200061062A1, “INHIBITORS OF HUMAN PHOSPHATIDYLINOSITOL 3-KINASE DELTA” (ICOS Corporation, priority 2000, published 2020).
Where two headings read alike, the source gives them in different places.

Key:
PI3Kβ [1] = biological target: T1, PI3Kβ (Homo sapiens, UniProt P42338); experiment: Biochemical assay using 200 μM ATP, Beta
T1 construct: His tag (pFastbac HTa vector) (N); FLAG (N); made in house; host or cells: Sf21 insect cells (baculovirus)

PI3Kγ [2] = biological target: T2, PI3Kγ (Homo sapiens, UniProt P48736); experiment: Biochemical assay of PI3K potency and selectivity using 20 μM ATP, Gamma; details: for Gamma/Delta Ratio: ratio of IC50 values
T2 construct: His tag (pFastbac HTb vector) (N); FLAG (N); made in house; host or cells: Sf21 insect cells (baculovirus)
T2 sequence (P48736 whole entry): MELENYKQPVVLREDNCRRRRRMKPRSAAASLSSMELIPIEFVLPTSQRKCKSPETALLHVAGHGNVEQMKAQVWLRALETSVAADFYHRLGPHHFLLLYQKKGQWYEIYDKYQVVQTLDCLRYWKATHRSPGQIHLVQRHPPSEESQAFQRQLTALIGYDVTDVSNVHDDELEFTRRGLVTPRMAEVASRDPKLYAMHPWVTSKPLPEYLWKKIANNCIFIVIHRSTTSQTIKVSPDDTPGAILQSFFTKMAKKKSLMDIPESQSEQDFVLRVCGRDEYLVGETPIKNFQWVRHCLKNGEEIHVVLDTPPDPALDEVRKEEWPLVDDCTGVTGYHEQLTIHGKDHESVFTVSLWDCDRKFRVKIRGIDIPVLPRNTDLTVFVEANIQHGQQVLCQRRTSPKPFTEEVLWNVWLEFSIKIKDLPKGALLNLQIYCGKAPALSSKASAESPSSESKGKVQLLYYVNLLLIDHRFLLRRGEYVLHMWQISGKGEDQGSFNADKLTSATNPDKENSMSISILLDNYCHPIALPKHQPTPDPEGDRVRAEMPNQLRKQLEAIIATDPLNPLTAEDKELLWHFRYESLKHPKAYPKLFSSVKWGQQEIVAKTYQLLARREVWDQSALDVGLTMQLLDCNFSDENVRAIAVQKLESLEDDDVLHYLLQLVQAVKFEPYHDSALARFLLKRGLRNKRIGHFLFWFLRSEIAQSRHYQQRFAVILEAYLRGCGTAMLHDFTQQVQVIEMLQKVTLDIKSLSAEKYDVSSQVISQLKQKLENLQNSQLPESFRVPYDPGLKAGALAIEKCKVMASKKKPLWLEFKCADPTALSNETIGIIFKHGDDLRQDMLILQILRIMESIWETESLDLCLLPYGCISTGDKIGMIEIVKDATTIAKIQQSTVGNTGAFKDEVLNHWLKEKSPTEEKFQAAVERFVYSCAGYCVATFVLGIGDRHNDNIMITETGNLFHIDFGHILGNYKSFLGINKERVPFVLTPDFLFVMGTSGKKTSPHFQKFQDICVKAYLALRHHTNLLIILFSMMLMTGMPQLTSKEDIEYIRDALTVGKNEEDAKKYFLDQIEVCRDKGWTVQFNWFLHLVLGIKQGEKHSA

PI3Kβ [3] = biological target: T1, PI3Kβ; experiment: Biochemical assay of PI3K potency and selectivity using 20 μM ATP, Beta; details: for Beta/Delta Ratio / remaining activity at 100 µM: 20 μM ATP; for Beta/Delta Ratio: ratio of IC50 values, > = hypothetical ratio with 100 μM substituted for the missing IC50; for remaining activity at 100 µM: read-out: Beta: percent activity remaining at 100 μM, 100 μM compound did not inhibit by at least 50%
Outline: (§1)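 Radioactive phosphate transfer from γ-[32P]ATP onto PIP2/PS liposomes was measured in 20 mM HEPES, pH 7.4, at 20 μM ATP. The 3× substrate stock contained […] and 6 μM PIP2/PS.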

human neutrophils = experiment: Elastase exocytosis from neutrophils (fMLP-induced); format: cell-based; details: for EC50: neutrophil (PMN) elastase release
Outline: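 Human blood neutrophils (Ficoll-Hypaque) treated with compound or DMSO, then stimulated 90 min at 37 °C with 1 μM fMLP plus 0.01 mg/mL cytochalasin B, 1.0 μM NaN3 and 5 μg/mL L-methionine. Supernatant elastase read at 410 nm over 2 h on MeO-suc-AAPV-pNA, normalized to uninhibited; EC50 in μM.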

PI3Kδ = PI3Kδ (Homo sapiens, UniProt O00329, S253N); experiment: Biochemical assay of PI3K potency and selectivity using 20 μM ATP, Delta; set-up: His tag (pFastbac HTb vector) (N); FLAG; made in house; host or cells: Sf21 insect cells (baculovirus)
Chain of PI3Kδ (O00329 whole entry S253N): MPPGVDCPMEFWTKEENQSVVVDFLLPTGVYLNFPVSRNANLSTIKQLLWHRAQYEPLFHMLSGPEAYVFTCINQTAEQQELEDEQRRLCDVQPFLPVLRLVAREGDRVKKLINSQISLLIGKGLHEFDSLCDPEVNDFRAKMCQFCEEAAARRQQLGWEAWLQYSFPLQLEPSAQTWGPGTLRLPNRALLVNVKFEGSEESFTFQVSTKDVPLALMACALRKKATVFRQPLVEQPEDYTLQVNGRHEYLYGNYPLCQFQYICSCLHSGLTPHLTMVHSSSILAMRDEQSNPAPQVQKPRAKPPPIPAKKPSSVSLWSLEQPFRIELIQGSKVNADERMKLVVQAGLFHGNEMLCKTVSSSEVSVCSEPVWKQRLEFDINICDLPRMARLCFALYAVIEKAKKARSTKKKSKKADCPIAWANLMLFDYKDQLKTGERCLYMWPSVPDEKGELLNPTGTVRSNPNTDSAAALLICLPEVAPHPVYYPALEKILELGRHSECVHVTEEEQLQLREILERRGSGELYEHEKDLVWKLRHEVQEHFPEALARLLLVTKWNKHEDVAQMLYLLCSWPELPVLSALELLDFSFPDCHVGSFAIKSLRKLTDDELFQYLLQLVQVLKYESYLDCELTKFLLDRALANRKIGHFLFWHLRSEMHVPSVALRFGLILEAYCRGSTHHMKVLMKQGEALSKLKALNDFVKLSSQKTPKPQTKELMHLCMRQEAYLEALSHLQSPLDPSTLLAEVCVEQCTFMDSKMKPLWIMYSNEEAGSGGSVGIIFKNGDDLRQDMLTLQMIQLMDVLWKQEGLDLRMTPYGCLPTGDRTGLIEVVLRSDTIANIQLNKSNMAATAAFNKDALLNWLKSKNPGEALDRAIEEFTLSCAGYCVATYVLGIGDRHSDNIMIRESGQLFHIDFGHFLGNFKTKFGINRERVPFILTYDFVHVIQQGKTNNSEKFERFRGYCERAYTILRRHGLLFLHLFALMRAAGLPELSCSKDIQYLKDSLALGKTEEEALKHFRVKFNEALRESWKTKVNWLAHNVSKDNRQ
Chain of PI3Kδ (P27986 whole entry partner): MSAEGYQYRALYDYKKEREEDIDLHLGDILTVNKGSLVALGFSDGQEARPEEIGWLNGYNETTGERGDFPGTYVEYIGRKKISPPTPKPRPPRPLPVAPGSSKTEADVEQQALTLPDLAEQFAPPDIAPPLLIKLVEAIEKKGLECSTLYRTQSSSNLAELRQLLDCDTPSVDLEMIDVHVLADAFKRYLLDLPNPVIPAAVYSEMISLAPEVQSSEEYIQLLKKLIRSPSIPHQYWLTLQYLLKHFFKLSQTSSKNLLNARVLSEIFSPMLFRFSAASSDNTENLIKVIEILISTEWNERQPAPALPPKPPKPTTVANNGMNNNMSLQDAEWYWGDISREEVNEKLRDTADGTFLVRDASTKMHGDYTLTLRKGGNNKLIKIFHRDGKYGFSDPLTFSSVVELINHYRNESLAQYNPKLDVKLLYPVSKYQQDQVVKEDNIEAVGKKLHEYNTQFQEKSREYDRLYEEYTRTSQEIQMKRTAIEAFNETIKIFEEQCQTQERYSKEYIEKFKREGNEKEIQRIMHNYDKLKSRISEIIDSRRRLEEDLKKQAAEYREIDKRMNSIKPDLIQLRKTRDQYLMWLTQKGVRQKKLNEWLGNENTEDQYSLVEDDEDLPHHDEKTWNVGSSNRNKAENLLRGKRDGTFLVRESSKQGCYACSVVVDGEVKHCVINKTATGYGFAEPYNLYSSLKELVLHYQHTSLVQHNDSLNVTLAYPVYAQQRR
Outline: as §1

PI3Kα = biological target: T3, PI3Kα (Homo sapiens, UniProt P42336); experiment: Biochemical assay of PI3K potency and selectivity using 20 μM ATP, Alpha; details: for Alpha/Delta Ratio: ratio of IC50 values, > = hypothetical ratio with 100 μM substituted for the missing IC50; for remaining activity at 100 µM: read-out: percent activity remaining at 100 μM, 20 μM ATP, 100 μM compound did not inhibit by at least 50%
T3 construct: His tag (pFastbac HTb vector) (N); FLAG; made in house; host or cells: Sf21 insect cells (baculovirus)
T3 sequence (P42336 whole entry): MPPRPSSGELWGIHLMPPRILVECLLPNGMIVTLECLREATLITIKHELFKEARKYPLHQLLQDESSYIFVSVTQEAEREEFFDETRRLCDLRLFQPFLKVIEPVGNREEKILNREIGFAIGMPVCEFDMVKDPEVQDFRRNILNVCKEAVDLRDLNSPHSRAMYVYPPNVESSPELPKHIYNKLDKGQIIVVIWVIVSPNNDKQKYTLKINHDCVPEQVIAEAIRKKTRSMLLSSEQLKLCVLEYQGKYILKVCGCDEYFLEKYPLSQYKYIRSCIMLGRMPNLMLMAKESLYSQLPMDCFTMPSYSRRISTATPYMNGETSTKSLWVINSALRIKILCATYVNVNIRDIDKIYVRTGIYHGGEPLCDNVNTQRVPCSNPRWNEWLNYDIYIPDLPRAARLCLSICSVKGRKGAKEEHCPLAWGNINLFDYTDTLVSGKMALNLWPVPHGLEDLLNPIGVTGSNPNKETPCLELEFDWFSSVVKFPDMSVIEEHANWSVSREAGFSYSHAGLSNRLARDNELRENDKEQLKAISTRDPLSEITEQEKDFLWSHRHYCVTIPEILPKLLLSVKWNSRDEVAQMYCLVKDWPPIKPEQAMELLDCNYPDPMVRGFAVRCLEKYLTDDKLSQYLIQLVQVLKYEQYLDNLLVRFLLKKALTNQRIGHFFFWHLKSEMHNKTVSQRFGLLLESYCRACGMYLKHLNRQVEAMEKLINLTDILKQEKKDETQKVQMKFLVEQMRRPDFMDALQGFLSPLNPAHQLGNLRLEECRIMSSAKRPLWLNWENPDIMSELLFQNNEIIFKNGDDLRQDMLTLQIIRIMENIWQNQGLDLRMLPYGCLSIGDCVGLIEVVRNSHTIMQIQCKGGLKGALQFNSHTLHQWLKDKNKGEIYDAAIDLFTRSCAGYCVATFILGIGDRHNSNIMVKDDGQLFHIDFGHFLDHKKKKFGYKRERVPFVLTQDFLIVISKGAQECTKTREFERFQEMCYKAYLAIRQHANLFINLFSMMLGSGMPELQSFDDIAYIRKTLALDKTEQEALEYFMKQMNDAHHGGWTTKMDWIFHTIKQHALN
T3 sequence (P27986 whole entry partner): as the sequence (P27986 whole entry partner) above
Outline: as §1

[4] = test system: Murine splenocytes (Balb/c); experiment: B cell proliferation in response to cell surface IgM stimulation; format: cell-based; details: Mus musculus, Splenocyte; for EC50: stimulated B cell proliferation, read-out: Mouse BCR Stim (EC50)
Outline: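 Balb/c splenocytes (2×10^5/well, 10% FBS/RPMI) preincubated 30-60 min with inhibitor, then stimulated with goat F(ab′)2 anti-mouse IgM μ-chain at 25 μg/mL final. Cultured 3 days at 37° C., [^3H]-thymidine pulsed for final 4 h; incorporation counted as CPM. Values are EC50 (μM).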

PI3Kγ [5] = biological target: T2, PI3Kγ; experiment: Biochemical assay using 200 μM ATP, Gamma
[6] = 20 μM ATP, read-out: Delta IC50

T1 sequence (P42338 whole entry): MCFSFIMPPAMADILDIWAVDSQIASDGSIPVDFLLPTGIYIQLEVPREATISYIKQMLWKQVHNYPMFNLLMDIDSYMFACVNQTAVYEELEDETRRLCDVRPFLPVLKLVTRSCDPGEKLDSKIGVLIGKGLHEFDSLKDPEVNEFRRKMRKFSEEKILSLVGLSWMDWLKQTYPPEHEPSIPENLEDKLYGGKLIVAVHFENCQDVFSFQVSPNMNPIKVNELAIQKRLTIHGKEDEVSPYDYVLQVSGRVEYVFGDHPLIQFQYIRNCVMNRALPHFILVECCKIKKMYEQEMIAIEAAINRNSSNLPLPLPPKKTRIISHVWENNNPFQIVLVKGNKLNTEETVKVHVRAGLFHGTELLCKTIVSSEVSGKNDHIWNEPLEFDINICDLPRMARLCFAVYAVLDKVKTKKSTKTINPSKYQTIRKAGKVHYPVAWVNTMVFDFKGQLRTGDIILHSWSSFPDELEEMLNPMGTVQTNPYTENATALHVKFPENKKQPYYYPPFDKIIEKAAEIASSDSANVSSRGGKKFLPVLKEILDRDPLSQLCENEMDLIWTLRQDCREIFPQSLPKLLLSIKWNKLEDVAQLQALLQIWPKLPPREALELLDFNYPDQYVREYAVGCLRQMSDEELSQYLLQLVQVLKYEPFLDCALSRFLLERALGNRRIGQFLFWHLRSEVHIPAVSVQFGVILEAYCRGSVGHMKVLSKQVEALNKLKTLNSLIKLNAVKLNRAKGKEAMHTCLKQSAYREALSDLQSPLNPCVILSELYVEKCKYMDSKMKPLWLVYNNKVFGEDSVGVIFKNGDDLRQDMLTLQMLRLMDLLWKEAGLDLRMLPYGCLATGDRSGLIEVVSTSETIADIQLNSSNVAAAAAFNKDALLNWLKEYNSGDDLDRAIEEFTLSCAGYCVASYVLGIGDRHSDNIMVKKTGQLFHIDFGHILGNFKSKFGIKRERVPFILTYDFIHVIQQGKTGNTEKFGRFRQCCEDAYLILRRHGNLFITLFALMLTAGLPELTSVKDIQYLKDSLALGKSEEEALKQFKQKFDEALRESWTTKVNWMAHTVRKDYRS
T1 sequence (P27986 whole entry partner): as the sequence (P27986 whole entry partner) above

O=c1c2c(F)cccc2nc(CSc2ncnc3[nH]cnc23)n1-c1ccccc1Cl [Compound D-015, 3-(2-Chlorophenyl)-5-fluoro-2-(9H-purin-6-ylsulfanylmethyl)-3H-quinazolin-4-one]
Beta/Delta Ratio (PI3Kβ [1]): 154
IC50 (PI3Kγ [2]): 3.6 µM
Gamma/Delta Ratio (PI3Kγ [2]): 17
Beta/Delta Ratio (PI3Kβ [3]): >480
remaining activity at 100 µM (PI3Kβ [3]): 69%
EC50 (human neutrophils): 1.3 ± 0.4 µM
IC50 (PI3Kδ; [6]): 0.21 µM
Alpha/Delta Ratio (PI3Kα; 20 μM ATP): >480
remaining activity at 100 µM (PI3Kα): 65%
EC50 [4]: 1.2 ± 0.2 µM
Gamma/Delta Ratio (PI3Kγ [5]): 160

O=c1c2ccccc2nc(CSc2ncnc3[nH]ncc23)n1-c1ccccc1Cl [Compound D-999, 3-(2-Chlorophenyl)-2-(1H-pyrazolo[3,4-d]pyrimidin-4-ylsulfanylmethyl)-3H-quinazolin-4-one, reference compound]
Beta/Delta Ratio (PI3Kβ [1]): 2
IC50 (PI3Kγ [2]): 60 µM
Gamma/Delta Ratio (PI3Kγ [2]): 1.3
Beta/Delta Ratio (PI3Kβ [3]): 2.1
remaining activity at 100 µM (PI3Kβ [3]): 71%
EC50 (human neutrophils): > 20 µM
IC50 (PI3Kδ; [6]): 47 µM
Alpha/Delta Ratio (PI3Kα; 20 μM ATP): 2.2
IC50 (PI3Kα; 20 μM ATP, read-out: Alpha IC50): 105 µM
EC50 [4]: 3.1 ± 0.7 µM
Gamma/Delta Ratio (PI3Kγ [5]): 1
IC50 (PI3Kγ [5]): 90 µM

O=c1c2c(Cl)cccc2nc(CSc2ncnc3[nH]cnc23)n1-c1ccccc1Cl [Compound D-025, 5-Chloro-3-(2-chlorophenyl)-2-(9H-purin-6-ylsulfanylmethyl)-3H-quinazolin-4-one]
IC50 (PI3Kγ [2]): 1.5 µM
Gamma/Delta Ratio (PI3Kγ [2]): 14
Beta/Delta Ratio (PI3Kβ [3]): >909
remaining activity at 100 µM (PI3Kβ [3]): 61%
EC50 (human neutrophils): 0.3 ± 0.2 µM
IC50 (PI3Kδ; [6]): 0.11 µM
Alpha/Delta Ratio (PI3Kα; 20 μM ATP): >909
remaining activity at 100 µM (PI3Kα): 73%
EC50 [4]: 0.3 ± 0.1 µM
Gamma/Delta Ratio (PI3Kγ [5]): 24
IC50 (PI3Kγ [5]): 7.8 ± 3 µM

O=c1c2ccccc2nc(CSc2ncnc3[nH]cnc23)n1-c1ccccc1Cl [Compound D-000, 3-(2-chlorophenyl)-2-(9H-purin-6-ylsulfanylmethyl)-3H-quinazolin-4-one]
Beta/Delta Ratio (PI3Kβ [1]): 84
IC50 (PI3Kγ [2]): 7.7 µM
Gamma/Delta Ratio (PI3Kγ [2]): 23
Beta/Delta Ratio (PI3Kβ [3]): >302
IC50 (PI3Kβ [3]; Example 2 assay conditions, limit of 100 μM compound, read-out: IC50, β isoform of PI3K (FIG. 1)): > 100 µM
remaining activity at 100 µM (PI3Kβ [3]): 74%
IC50 (human neutrophils; Neutrophil, 1.5 h, 1 μM fMLP, 90 min, FIG. 4, read-out: Concentration of half-maximal inhibition of fMLP-induced elastase exocytosis): 2 to 3 µM
EC50 (human neutrophils): 2.2 ± 2 µM
IC50 (PI3Kδ; [6]): 0.33 µM
IC50 (PI3Kδ; Example 2 assay conditions, read-out: IC50, δ isoform of PI3K (FIG. 1)): ~0.3 µM
Alpha/Delta Ratio (PI3Kα; 20 μM ATP): >302
IC50 (PI3Kα; Example 2 assay conditions, limit of 100 μM compound, read-out: IC50, α isoform of PI3K (FIG. 1)): > 100 µM
remaining activity at 100 µM (PI3Kα): 86%
IC50 ([4]; anti-IgM 25 μg/mL, 3 days, [3H]-thymidine, FIG. 8, read-out: Concentration reducing anti-IgM-stimulated B cell proliferation to its half-maximal value): ~1 µM
EC50 [4]: 0.9 ± 0.4 µM
Gamma/Delta Ratio (PI3Kγ [5]): 18
IC50 (PI3Kγ [5]): 35 ± 35 µM
